Holding throughout (test): CRE-luciferase cAMP reporter, HEK293
What all share (type): cell-based, Homo sapiens

The test system of one test is T1, CB2-ICL3 (i3).
T1 construct: gene CNR2; Flag-tagged CB2 with third intracellular loop replaced by that of CB1; HEK293
As to conditions: agonist; inhibition of cAMP elevated by 10 µM forskolin, 4 h, 37 °C; pEC50 7.99±0.22. From the text:
CRE-luciferase cAMP reporter, HEK293 on CB2-ICL3 (i3)

In test [1] the test system is T2, CB2-ICL2ICL3Cter (i2i3Cter).
T2 construct: gene CNR2; Flag-tagged CB2 with second and third intracellular loops and C-terminal tail of CB1; HEK293
As to conditions: agonist; inhibition of cAMP elevated by 10 µM forskolin, 4 h, 37 °C; pEC50 8.48±0.22. From the text: CRE-luciferase cAMP reporter, HEK293 on CB2-ICL2ICL3Cter (i2i3Cter)

The next test concerns T3, CB2-ICL2ICL3 (i2i3).
T3 construct: gene CNR2; Flag-tagged CB2 with second and third intracellular loops of CB1; HEK293
The conditions noted are these: agonist; inhibition of cAMP elevated by 10 µM forskolin, 4 h, 37 °C; pEC50 8.47±0.15. From the text: CRE-luciferase cAMP reporter, HEK293 on CB2-ICL2ICL3 (i2i3)

In another test the test system is T4, CB2-ICL2Cter (i2Cter).
T4 construct: gene CNR2; Flag-tagged CB2 with second intracellular loop and C-terminal tail of CB1; HEK293
The conditions noted are these: agonist; stimulation of cAMP, no forskolin, 4 h, 37 °C; pEC50 6.85±0.1. From the text: CRE-luciferase cAMP reporter, HEK293 on CB2-ICL2Cter (i2Cter)

The test system of another test is T5, CB2-Cter (Cter).
T5 construct: gene CNR2; Flag-tagged CB2 with C-terminal tail replaced by that of CB1; HEK293
The conditions noted are these: agonist, 4 h, 37 °C. The source says:
CRE-luciferase cAMP reporter, HEK293 on CB2-Cter (Cter)

The subject of the next test is T6, CB2-ICL1 (i1).
T6 construct: gene CNR2; Flag-tagged CB2 with first intracellular loop replaced by that of CB1; HEK293
As to conditions: agonist; inhibition of cAMP elevated by 10 µM forskolin, 4 h, 37 °C; pEC50 8.17±0.19. The source says: CRE-luciferase cAMP reporter, HEK293 on CB2-ICL1 (i1)

In the next test the test system is T7, CB2-ICL2 (i2).
T7 construct: gene CNR2; Flag-tagged CB2 with second intracellular loop replaced by that of CB1; HEK293
The conditions noted are these: agonist; inhibition of cAMP elevated by 10 µM forskolin, 4 h, 37 °C; pEC50 7.74±0.09. From the text: CRE-luciferase cAMP reporter, HEK293 on CB2-ICL2 (i2)

Each structure is given as a SMILES string.

Take `Cc1c(C(=O)c2cccc3ccccc23)c2cccc3c2n1[C@H](CN1CCOCC1)CO3` [WIN55,212-2]: the EC50 with CB2-ICL3 (i3) was 13.4 ± 7.3 nM; in test [1] it was 4.4 ± 2.4 nM; with CB2-ICL2ICL3 (i2i3), 3.8 ± 1.2 nM; in the test on CB2-ICL2Cter (i2Cter), 149 ± 35 nM; in the test on CB2-Cter (Cter) (P139LCter, stimulation of cAMP, no forskolin, pEC50 7.53±0.11), 29.8 ± 7.1 nM; with CB2-Cter (Cter) (inhibition of cAMP elevated by 10 µM forskolin, pEC50 8.23±0.03), 5.9 ± 0.4 nM. In addition, the EC50 was 8 ± 2.8 nM with CB2-ICL1 (i1) and 19.2 ± 4.4 nM with CB2-ICL2 (i2).

By EC50 is commonly meant the concentration at which the effect is half-maximal. A low value points to higher potency in that assay.

These data come from paper PMC3646771, “The Second Intracellular Loop of the Human Cannabinoid CB2 Receptor Governs G Protein Coupling in Coordination with the Carboxyl Terminal Domain” (PLoS ONE, 2013).
